# In ChEMBL document CHEMBL6083251, “"Pseudosubstrate Envelope"/Free Energy Perturbation-Guided Design and Mechanistic Investigations of Benzothiazole HIV Capsid Modulators with High Ligand Efficiency” (J Med Chem, 2024):
# The source made the active and inactive calls. The calls are words filed in the database; no cut-off is given here.
# Columns and labels:
# [1] = molecular target: Structural capsid protein (Human immunodeficiency virus 1) (UniProt Q76129); assay: Binding affinity to HIV-1 hexameric capsid protein assessed as reduction in CPSF6 binding to capsid protein by competition assay based SPR analysis; conditions: filed as modulator
# Chain of Structural capsid protein (Human immunodeficiency virus 1) (Q76129 as listed by the source): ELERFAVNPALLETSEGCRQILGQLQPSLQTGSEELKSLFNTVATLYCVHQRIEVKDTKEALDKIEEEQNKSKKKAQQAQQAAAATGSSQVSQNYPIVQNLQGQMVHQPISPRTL
# [2] = Subacute toxicity in male Kunming mouse assessed as pathological damage in spleen at 50 mg/kg, po administered every other day for 14 days by H and E staining based analysis; assay type: organism-based; conditions: in vivo, 336 h, time 14 day
# [3] = Selectivity index, ratio of CC50 for human MT4 cells to EC50 for HIV-2 ROD infected in human MT-4 cells; assay type: toxicity, cell-based; conditions: read-out: Selectivity Index
# [4] = test system: Human immunodeficiency virus 2; assay: Anti-HIV activity against HIV-2 ROD infected in human MT-4 cells assessed as protection against virus-induced cytopathic effect incubated for 5 days by spectrophotometric based MTT assay; assay type: functional, organism-based; conditions: Human immunodeficiency virus 2, ROD, MT4, 120 h
# [5] = AUC(0 to infinity) in male Sprague-Dawley rat at 2 mg/kg, iv measured upto 24 hrs by LC-MS/MS analysis; assay type: ADME, organism-based; conditions: in vivo
# [6] = Subacute toxicity in male Kunming mouse assessed as animal death at 50 mg/kg, po administered every other day for 14 days; assay type: organism-based; conditions: in vivo, 336 h, time 14 day
# [7] = Acute toxicity in female Kunming mouse assessed as convulsion at 1000 mg/kg, IG administered via gavage; assay type: organism-based; conditions: in vivo, po
# MT4 = assay: Cytotoxicity against human MT4 cells assessed as reduction in cell viability incubated for 5 days by spectrophotometric based MTT assay; assay type: functional; conditions: MT4, 120 h, time 5 day
# [8] = test system: Human immunodeficiency virus 1; assay: Induction of HIV-1 CA-NC assessed as capsid assembly at 10 uM by FRET analysis; conditions: filed as modulator
# [9] = AUC(0 to t) in male Sprague-Dawley rat at 10 mg/kg, sc measured upto 24 hrs by LC-MS/MS analysis; assay type: ADME, organism-based; conditions: in vivo
# [10] = Subacute toxicity in male Kunming mouse assessed as hunched posture at 50 mg/kg, po administered every other day for 14 days; assay type: organism-based; conditions: in vivo, 336 h, time 14 day
# [11] = molecular target: Structural capsid protein (Human immunodeficiency virus 1) (UniProt Q76129); assay: Binding affinity to HIV-1 hexameric capsid protein assessed as reduction in NUP153 binding to capsid protein by competition assay based SPR analysis; conditions: filed as modulator
# [12] = MRT(0 to t) in male Sprague-Dawley rat at 2 mg/kg, iv measured upto 24 hrs by LC-MS/MS analysis; assay type: ADME, organism-based; conditions: in vivo
# [13] = MRT(0 to infinity) in male Sprague-Dawley at 10 mg/kg, sc measured upto 24 hrs by LC-MS/MS analysis; assay type: ADME, organism-based; conditions: rat, in vivo
smiles,measurement,setting,value
CN(C(=O)[C@H](Cc1cc(F)cc(F)c1)NC(=O)Cc1c[nH]c2ccc(O)cc12)c1ccc2scnc2c1,Activity,[1],Active
same,Activity,[2],Non-toxic
same,selectivity ratio,[3],1360
same,EC50,[4],0.098 µM
same,AUC(0-inf),[5],7.77 ng·h/mL
same,Activity,[6],Non-toxic
same,Activity,[7],Non-toxic
same,CC50,MT4,133 µM
same,Activity,[8],Active
same,AUC(0-t) at 24 h,[9],23.3 ng·h/mL
same,Activity,[10],Non-toxic
same,Activity,[11],Active
same,MRT last at 24 h,[12],7.74 min
same,MRT inf,[13],5.85 h
